#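 Protocol summary: plate cells (96-well), add compound at 5 concentrations, incubate 48 h, interpolate endpoints linearly. GI50: concentration for 50% inhibition of growth.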 Active and inactive are the calls of the source. Rule as the data show it: active = GI50 up to about 1.1 µM and inactive = higher.
# Key:
# Assay in all cases: NCI anticancer screen, dose series, 48 h
# HT-29 = system: HT-29
# OVCAR-5 = system: OVCAR-5
# UACC-62 = system: UACC-62
# SNB-78 = system: SNB-78
# MDA-MB-231 = system: MDA-MB-231
# UACC-257 = system: UACC-257
# SN12C = system: SN12C
# SK-OV-3 = system: SK-OV-3
# HOP-18 = system: HOP-18
# MOLT-4 = system: MOLT-4
# LOX IMVI = system: LOX IMVI
# SF-268 = system: SF-268
# EKVX = system: EKVX
# OVCAR-4 = system: OVCAR-4
# OVCAR-8 = system: OVCAR-8
# RXF 393 = system: RXF 393
# MDA-N = system: MDA-N
# SW-620 = system: SW-620
# PC-3 = system: PC-3
# SK-MEL-28 = system: SK-MEL-28
# U-251 = system: U-251
# 786-0 = system: 786-0
# IGROV-1 = system: IGROV-1
# SF-295 = system: SF-295
# KM-20L2 = system: KM-20L2
# COLO 205 = system: COLO 205
# HCT-15 = system: HCT-15
# SK-MEL-5 = system: SK-MEL-5
# NCI-H460 = system: NCI-H460
# SK-MEL-2 = system: SK-MEL-2
# BT-549 = system: BT-549
# M14 = system: M14
# ACHN = system: ACHN
# TK-10 = system: TK-10
# SNB-75 = system: SNB-75
# HOP-62 = system: HOP-62
# HCT-116 = system: HCT-116
# RPMI-8226 = system: RPMI-8226
# DMS-273 = system: DMS-273
# NCI-H23 = system: NCI-H23
# SR = system: SR
# SF-539 = system: SF-539
# A498 = system: A498
# MDA-MB-435 = system: MDA-MB-435
# UO-31 = system: UO-31
# HCC 2998 = system: HCC 2998
# K562 = system: K562
# CAKI-1 = system: CAKI-1
# HL-60 = system: HL-60
# Malme-3M = system: Malme-3M
# CCRF-CEM = system: CCRF-CEM
# LXFL 529 = system: LXFL 529
# A549 = system: A549
# OVCAR-3 = system: OVCAR-3
# NCI-H226 = system: NCI-H226
# DLD-1 = system: DLD-1
smiles,measurement,setting,value
C=C(CC(NC(=O)c1ccc(C(CC)Cc2cnc3nc(N)nc(N)c3n2)cc1)C(=O)O)C(=O)O (stereo unspecified),GI50,HT-29,35.6 nM (active)
same,GI50,OVCAR-5,653 nM (active)
same,GI50,UACC-62,163 nM (active)
same,GI50,SNB-78,27700 nM (inactive)
same,GI50,MDA-MB-231,73.6 nM (active)
same,GI50,UACC-257,839 nM (active)
same,GI50,SN12C,24.4 nM (active)
same,GI50,SK-OV-3,214 nM (active)
same,GI50,HOP-18,42.9 nM (active)
same,GI50,MOLT-4,13.6 nM (active)
same,GI50,LOX IMVI,4.36 nM (active)
same,GI50,SF-268,73.1 nM (active)
same,GI50,EKVX,52700 nM (inactive)
same,GI50,OVCAR-4,246 nM (active)
same,GI50,OVCAR-8,21.7 nM (active)
same,GI50,RXF 393,237 nM (active)
same,GI50,MDA-N,46.2 nM (active)
same,GI50,SW-620,67.3 nM (active)
same,GI50,PC-3,52.7 nM (active)
same,GI50,SK-MEL-28,209 nM (active)
same,GI50,U-251,152 nM (active)
same,GI50,786-0,1.74 nM (active)
same,GI50,IGROV-1,27.4 nM (active)
same,GI50,SF-295,1.13 nM (active)
same,GI50,KM-20L2,10 nM (active)
same,GI50,COLO 205,79.6 nM (active)
same,GI50,HCT-15,5.31 nM
same,GI50,SK-MEL-5,85.7 nM (active)
same,GI50,NCI-H460,5.89 nM (active)
same,GI50,SK-MEL-2,933 nM (active)
same,GI50,BT-549,68.7 nM (active)
same,GI50,M14,20 nM (active)
same,GI50,ACHN,18.4 nM (active)
same,GI50,TK-10,71.9 nM (active)
same,GI50,SNB-75,154 nM (active)
same,GI50,HOP-62,30 nM (active)
same,GI50,HCT-116,2.86 nM (active)
same,GI50,RPMI-8226,29 nM (active)
same,GI50,DMS-273,0.644 nM (active)
same,GI50,NCI-H23,244 nM (active)
same,GI50,SR,3.16 nM (active)
same,GI50,SF-539,3.19 nM (active)
same,GI50,A498,632 nM (active)
same,GI50,MDA-MB-435,36.9 nM (active)
same,GI50,UO-31,114 nM (active)
same,GI50,HCC 2998,239 nM (active)
same,GI50,K562,1.85 nM (active)
same,GI50,CAKI-1,169 nM (active)
same,GI50,HL-60,3.76 nM (active)
same,GI50,Malme-3M,350 nM (active)
same,GI50,CCRF-CEM,10 nM (active)
same,GI50,LXFL 529,2.39 nM (active)
same,GI50,A549,5.67 nM (active)
same,GI50,OVCAR-3,190 nM (active)
same,GI50,NCI-H226,87.5 nM (active)
same,GI50,DLD-1,0.574 nM (active)
